From patent US20190233884A1 (University of Southern California, priority 2016, published 2019)

Test system: patients with refractory metastatic colorectal cancer (mCRC)
Assay: PFS, OS and disease control in the training (evaluation) cohort of refractory mCRC patients receiving TAS-102 (n=52, Japan), by baseline characteristics, SNP genotype and toxicity
Assay type: in vivo, human
Conditions: for OS (median) / PFS (median): evaluation cohort (JPN TAS-102); for Disease Control CR/PR/SD, patients n (%) / Median OS (95% CI) / Median PFS (95% CI) / PD, patients n (%) / HR OS (95% CI) / HR PFS (95% CI) / Disease Control Rate SD, patients n (%): evaluation cohort
Description: All patients underwent the treatment in salvage-line setting. […]
(§1) Genomic DNA was extracted from peripheral whole blood in patients of all cohorts using the QIAmp Kit (Qiagen, Valencia, Calif., USA) according to the manufacturer's protocol (www.qiagen.com). The candidate SNPs were genotyped using PCR-based direct DNA sequence analysis by ABI 3100A Capillary Genetic Analyzer and Sequencing Scanner v1.0 (Applied Biosystems). Amplification of extracted DNA was carried out using both forward and reverse primers for each gene polymorphism as shown in Table 1. […] The investigators analyzing SNPs were blinded to the clinical data of the study patients.
The primary endpoint in this study was progression-free survival (PFS), and the secondary endpoints were overall survival (OS) and disease control rate (DCR). PFS was calculated from the date of starting treatment to the first observation of disease progression or death from any cause. If a patient had no disease progression or death, PFS was censored at the date of last follow up. OS was calculated from the date of starting treatment until the date of death from any cause or the date of the last follow-up, at which point OS was censored. The disease control rate (DCR) was defined as the proportion of patients who achieved a stable disease (SD) or […] according to RECISTv1.1. Chi-square test was used to examine the difference in baseline patient characteristics among the three cohorts. Allelic distribution of all SNPs by ethnicity for deviation from Hardy-Weinberg equilibrium and the allelic frequencies of SNPs were tested using the Chi-square tests with one degree of freedom. The associations between candidate SNPs and disease control, and toxicities were examined using contingency tables and Fisher's exact test. The associations of SNPs with PFS and OS were analysed using Kaplan-Meier curves and the log-rank test. Because the true mode of inheritance of candidate SNPs was not established yet, a codominant or dominant genetic model if appropriate was considered.
All patients underwent the treatment in salvage-line setting. […] In all patients, adverse events were graded according to the Common Terminology Criteria for Adverse Events, version 4.0. […]
as §1, with “tested” for “genotyped”, “Biosystems).” for “Biosystems). Amplification of extracted DNA was carried out using both forward and reverse primers for each gene polymorphism as shown in Table 1.”, “data.” for “data of the study patients.”
The primary endpoint in this study was progression-free survival (PFS), and the secondary endpoints were overall survival (OS) and disease control rate (DCR).

[1] = PCNA rs25406 G/A vs G/G, univariate
[2] = Pin1 rs2233678 G/C vs G/G, multivariable
[3] = Pin1 rs2233678 G/C vs G/G, univariate
[4] = Pin1 rs2233679 Any T vs C/C, multivariable
[5] = Pin1 rs2233679 Any T vs C/C, univariate
[6] = Pin1 rs2233679 C/T vs C/C, multivariable
[7] = Pin1 rs2233679 C/T vs C/C, univariate
[8] = Pin1 rs2233679 T/T vs C/C, multivariable
[9] = Pin1 rs2233679 T/T vs C/C, univariate
[10] = RAD51 rs1801320 G/C vs G/G, multivariable
[11] = RAD51 rs1801320 G/C vs G/G, univariate
[12] = ATM rs609429 Any G vs C/C (Ref.), multivariable
[13] = ATM rs609429 Any G vs C/C (Ref.), univariate
[14] = ATM rs609429 G/C vs C/C (Ref.), multivariable
[15] = ATM rs609429 G/C vs C/C (Ref.), univariate
[16] = ATM rs609429 G/G vs C/C (Ref.), multivariable
[17] = ATM rs609429 G/G vs C/C (Ref.), univariate

For Trifluridine/tipiracil [TAS-102], the “OS HR (95% CI)†” value [1] was 0.62 (0.22, 1.71), the “PFS HR (95% CI) †” value [1] was 0.68 (0.32, 1.41) and the “OS median, months (95% CI)” value (PCNA rs25406 G/G) was 8.3 (2.7, 14.8+) months. For the same substance, the “PFS median, months (95% CI)” value (PCNA rs25406 G/G) was 2.1 (1.6, 4.2) months, the “OS median, months (95% CI)” value (Pin1 rs2233678 G/C) was 4.2 (2.7, 5.7+) months and the “PFS median, months (95% CI)” value (Pin1 rs2233678 G/C) was 1.7 (1.6, 1.8+) months. The “OS HR (95% CI)‡” value [2] was 7.21 (1.47, 35.33), the “PFS HR (95% CI) ‡” value [2] was 5.08 (1.11, 23.23) and the “OS HR (95% CI)†” value [3] was 4.23 (0.92, 19.42). For the same substance, the “PFS HR (95% CI) †” value [3] was 3.66 (0.79, 16.99), the “OS median, months (95% CI)” value (Pin1 rs2233678 G/G) was 8.3 (6.3, 15.6+) months and the “PFS median, months (95% CI)” value (Pin1 rs2233678 G/G) was 2.9 (2.1, 3.4) months. The “OS median, months (95% CI)” value (Pin1 rs2233679 Any T) was 8.3 (6.3, 14.8+) months, the “PFS median, months (95% CI)” value (Pin1 rs2233679 Any T) was 3.3 (1.8, 3.7) months and the “OS HR (95% CI)‡” value [4] was 1.05 (0.43, 2.54). The “PFS HR (95% CI) ‡” value [4] was 1.01 (0.53, 1.94), the “OS HR (95% CI)†” value [5] was 0.95 (0.40, 2.26) and the “PFS HR (95% CI) †” value [5] was 0.84 (0.45, 1.57). For the same substance, the “OS median, months (95% CI)” value (Pin1 rs2233679 C/C) was 7.2 (4.9, 15.6+) months, the “PFS median, months (95% CI)” value (Pin1 rs2233679 C/C) was 2.3 (1.8, 3.4) months and the “OS median, months (95% CI)” value (Pin1 rs2233679 C/T) was 8.3 (6.3, 12.4+) months. The “PFS median, months (95% CI)” value (Pin1 rs2233679 C/T) was 2.9 (1.8, 3.7) months, the “OS HR (95% CI)‡” value [6] was 1.04 (0.41, 2.64) and the “PFS HR (95% CI) ‡” value [6] was 1.03 (0.52, 2.03). The “OS HR (95% CI)†” value [7] was 1.05 (0.41, 2.65), the “PFS HR (95% CI) †” value [7] was 0.90 (0.46, 1.75) and the “OS median, months (95% CI)” value (Pin1 rs2233679 T/T) was 8.1 (3.1, 14.8+) months. The “PFS median, months (95% CI)” value (Pin1 rs2233679 T/T) was 3.4 (1.6, 4.6) months, the “OS HR (95% CI)‡” value [8] was 1.08 (0.24, 4.91) and the “PFS HR (95% CI) ‡” value [8] was 0.95 (0.34, 2.67). For the same substance, the “OS HR (95% CI)†” value [9] was 0.74 (0.20, 2.75), the “PFS HR (95% CI) †” value [9] was 0.70 (0.28, 1.79) and the “OS median, months (95% CI)” value (RAD51 rs1801320 G/C) was 6.3 (1.4, 8.4+) months. For the same substance, the “PFS median, months (95% CI)” value (RAD51 rs1801320 G/C) was 3.2 (0.9, 3.4) months, the “OS HR (95% CI)‡” value [10] was 2.28 (0.81, 6.48) and the “PFS HR (95% CI) ‡” value [10] was 1.34 (0.60, 3.00). For the same substance, the “OS HR (95% CI)†” value [11] was 2.19 (0.78, 6.14), the “PFS HR (95% CI) †” value [11] was 1.57 (0.70, 3.50) and the “OS median, months (95% CI)” value (RAD51 rs1801320 G/G) was 8.3 (5.7, 15.6+) months. The “PFS median, months (95% CI)” value (RAD51 rs1801320 G/G) was 2.5 (2.0, 4.1) months, the “PFS” value (TAS-102 cohort n=52, combined hENT1 and OCT2/MATE1 variants: poor (11)) was 47.0 days and the “PFS” value (combined hENT1 and OCT2/MATE1 analysis: overall (52)) was 80 days. The “PFS” value (combined hENT1 and OCT2/MATE1 variants: excellent (21)) was 104.0 days, the “PFS” value (combined hENT1 and OCT2/MATE1 variants: fair (16)) was 62.0 days and the “PFS” value (combined hENT1 and OCT2/MATE1 variants: good (4)) was 80 days. The “OS (median)” value (ATM rs609429 C/C (n=14)) was 4.4 months, the “OS (median)” value (ATM rs609429 any G allele (G/C or G/G, n=38)) was 8.7 months and the “PFS (median)” value (XRCC3 rs861539 G/A (n=17)) was 3.8 months. The “PFS (median)” value (XRCC3 rs861539 G/G (n=35)) was 2.3 months, the “Disease Control CR/PR/SD, patients n (%)” value (ATM rs609429 Any G) was 10 (29%) and the “Median OS (95% CI)” value (ATM rs609429 Any G) was 8.7 (6.3, 15.6+) months. The “Median PFS (95% CI)” value (ATM rs609429 Any G) was 2.7 (2.1, 3.4) months, the “PD, patients n (%)” value (ATM rs609429 Any G) was 25 (71%) and the “HR OS (95% CI)” value [12] was 0.24 (0.07, 0.80). The “HR PFS (95% CI)” value [12] was 1.37 (0.57, 3.26), the “HR OS (95% CI)” value [13] was 0.37 (0.14, 0.99) and the “HR PFS (95% CI)” value [13] was 1.53 (0.70, 3.35). For the same substance, the “Disease Control CR/PR/SD, patients n (%)” value (ATM rs609429 C/C) was 5 (45%), the “Median OS (95% CI)” value (ATM rs609429 C/C) was 4.4 (3.1, 8.3+) months and the “Median PFS (95% CI)” value (ATM rs609429 C/C) was 3.3 (1.6, 6.0+) months. For the same substance, the “PD, patients n (%)” value (ATM rs609429 C/C) was 6 (55%), the “Disease Control CR/PR/SD, patients n (%)” value (ATM rs609429 G/C) was 8 (32%) and the “Median OS (95% CI)” value (ATM rs609429 G/C) was 12.4 (6.3, 15.6+) months. The “Median PFS (95% CI)” value (ATM rs609429 G/C) was 2.9 (1.8, 3.4) months, the “PD, patients n (%)” value (ATM rs609429 G/C) was 17 (68%) and the “HR OS (95% CI)” value [14] was 0.19 (0.05, 0.68). For the same substance, the “HR PFS (95% CI)” value [14] was 1.30 (0.53, 3.19), the “HR OS (95% CI)” value [15] was 0.32 (0.11, 0.91) and the “HR PFS (95% CI)” value [15] was 1.53 (0.68, 3.43). The “Disease Control CR/PR/SD, patients n (%)” value (ATM rs609429 G/G) was 2 (20%), the “Median OS (95% CI)” value (ATM rs609429 G/G) was 8.7 (1.2, 14.8+) months and the “Median PFS (95% CI)” value (ATM rs609429 G/G) was 2.6 (1.2, 4.1) months. For the same substance, the “PD, patients n (%)” value (ATM rs609429 G/G) was 8 (80%), the “HR OS (95% CI)” value [16] was 0.39 (0.10, 1.54) and the “HR PFS (95% CI)” value [16] was 1.56 (0.56, 4.37). The “HR OS (95% CI)” value [17] was 0.52 (0.16, 1.73), the “HR PFS (95% CI)” value [17] was 1.55 (0.59, 4.04) and the “Disease Control Rate SD, patients n (%)” value (ATR rs2227928 A/A) was 3 (20%). For the same substance, the “PD, patients n (%)” value (ATR rs2227928 A/A) was 12 (80%), the “Disease Control Rate SD, patients n (%)” value (ATR rs2227928 A/G) was 7 (32%) and the “PD, patients n (%)” value (ATR rs2227928 A/G) was 15 (68%). The “Disease Control Rate SD, patients n (%)” value (ATR rs2227928 Any G) was 12 (39%), the “PD, patients n (%)” value (ATR rs2227928 Any G) was 19 (61%) and the “Disease Control Rate SD, patients n (%)” value (ATR rs2227928 G/G) was 5 (56%). The “PD, patients n (%)” value (ATR rs2227928 G/G) was 4 (44%), the “Disease Control Rate SD, patients n (%)” value (BRCA1 rs16941 Any C) was 8 (30%) and the “PD, patients n (%)” value (BRCA1 rs16941 Any C) was 19 (70%). For the same substance, the “Disease Control Rate SD, patients n (%)” value (BRCA1 rs16941 C/C) was 1 (20%), the “PD, patients n (%)” value (BRCA1 rs16941 C/C) was 4 (80%) and the “Disease Control Rate SD, patients n (%)” value (BRCA1 rs16941 T/C) was 7 (32%).
